In brackets after ≈: the same amount, converted by molar mass.
Experiments:
[1] = system: Albino BALBc mice, cecal ligation puncture (CLP); assay: cecal ligation puncture (mCLP) model, 7-day survival; type: in vivo
Protocol: The cecal ligation puncture (CLP) procedure was derived from a modification of standard methods previously described. Female, non-pregnant, specific pathogen-free, Albino BALBc mice (20-25 gm) were used in this experiment. The test compound (n=8 in each group) or corn oil control (n=12) were randomized to a treatment protocol consisting of 50 mg/kg of either the test compound or similar volume of corn oil at the time of CLP (time 0) and 24 and 48 hours following surgery. Animals were allowed to eat and drink sterile water on an ad libitum basis until 12 h before surgery when food was withheld until after the surgical procedure.
Anesthetized animals (methoxyflurane, Mallinckodt Veterninary Inc., Mundeline, Ill.) had the abdominal skin shaved and a midline, abdominal incision was made. The cecum was exteriorized and distended using intraluminal contents from the colon. The cecum was then ligated below the ileocecal valve and punctured twice using a 23-gauge sterile needle. The cecum was returned to the peritoneal cavity and the transversalis fascia was closed along with the skin incision. The skin incision was covered with topical bacitracin ointment. The animals were given a single […] dose of trovafloxacin (20 mg/kg IM) immediately post-operatively and a 1-mL subcutaneous dose of PBS was given as fluid resuscitation. […] All animals underwent necropsy examination for histological evidence of organ injury, pathology scoring of intestinal mucosa and quantitative bacteriology.
Differences in survival time between groups were analyzed by Kaplan-Meier survival plots and log-rank testing. Other parameters were measured using a Mann-Whitney U-Test for 2 groups or the Kruskal-Wallis one way analysis of variance for 3 or more groups. A p value of <0.05 was considered significant. All data is presented as mean and standard deviation.
The root compound (ERB-041) was dosed IV in the mCLP model, at 1 and 3 mg/kg at 24, 48 and 72 hours after induction of peritonitis. This therapeutic IV administration in mCLP confirmed attenuation of lung injury and cytokine/chemokine responses and attenuation of the subsequent clinical course, respectively.^5 achieving 7-day survival of 95 and 90% in the 3 and 1 mg/kg groups.
The 1 and 3 mg/kg doses were different from vehicle (0.05).

[2] = metabolite profiling of pooled plasma after single IV dose of the mono-phosphate derivative, monkey; conditions: single IV dose of mono-phosphate derivative (1.3 and 3.9 mg/kg), LC/UV/MS
Protocol: (§1) In this study, 5, 15, 30 min, 1, 2, 4, 6, 8 and 24 hr plasma samples were collected following a single IV dose of the mono-phosphate derivative (1.3 and 3.9 mg/kg) to mice, rats and monkeys. Equal volume (100 μL) of samples from 5, 15, 30 min and 1, 2, 4 hr and 6, 8, 24 hr time points from each subject (n=3) were pooled from the two dosing groups. Aliquots (900 μL) of pooled plasma were mixed with 2700 μL of cold acetonitrile and centrifuged at 3200×g for 10 minutes. The resulting supernatants were transferred to clean tubes and evaporated to dryness in a TurboVap LV at ambient temperature under a slow stream of nitrogen. The dried extracts were reconstituted with 300 μL of 20:80 acetonitrile:water (v/v). The samples were then analyzed by LC/UV/MS for metabolite profiling and characterization. LC-ESI/MS in negative ionization mode was used to acquire mass spectral data.

[3] = metabolite profiling of pooled plasma after single IV dose of the mono-phosphate derivative, mouse; conditions: single IV dose of mono-phosphate derivative (1.3 and 3.9 mg/kg), LC/UV/MS
Protocol: as §1

[4] = aqueous solubility at pH 7.4; type: physicochemical; conditions: aqueous medium at pH 7.4 (buffer not specified), pH 7.4, aqueous buffer
[5] = metabolite profiling of pooled plasma after single IV dose of the mono-phosphate derivative, rat; conditions: single IV dose of mono-phosphate derivative (1.3 and 3.9 mg/kg), LC/UV/MS
Protocol: as §1

IV pharmacokinetics = type: in vivo
Protocol: as §1

[6] = 1 mg/kg IV at 24, 48 and 72 hours after surgery / induction of peritonitis
[7] = 3 mg/kg IV at 24, 48 and 72 hours after surgery / induction of peritonitis

Structure (SMILES) | 7-day survival [1, 6] [%] | 7-day survival [1, 7] [%] | lung injury and cytokine/chemokine responses ([1]; 1 and 3 mg/kg IV at 24, 48 and 72 hours after induction of peritonitis) | Metabolites of phosphate prodrug characterized in plasma: Monkey [2] | Metabolites of phosphate prodrug characterized in plasma: Mouse [3] | solubility [4] [µg/mL] | Metabolites of phosphate prodrug characterized in plasma: Rat [5] | 7-day survival ([1]; 0.3 mg/kg IV at 24, 48 and 72 hours after surgery) [%] | minimally effective dose in mCLP ([1]; IV) [mg/kg] | IV pharmacokinetics (IV pharmacokinetics)
C=Cc1cc(O)cc2nc(-c3ccc(O)c(F)c3)oc12 [ERB-041, 2-(3-fluoro-4-hydroxyphenyl)-7-vinyl-1,3-benzoxazol-5-ol, reference compound] | 90 | 95 | attenuation | Yes | Yes | 4 (≈ 14.7 µM) | Yes | – | – | –
C=Cc1cc(O)cc2nc(-c3ccc(OP(=O)(O)O)c(F)c3)oc12 [Mono-Phosphate derivative of ERB 041, 2-fluoro-4-(5-hydroxy-7-vinylbenzo[d]oxazol-2-yl)phenyl dihydrogen phosphate] | 60 | 60 | – | Yes | Yes | > 100 | Yes | 40 | 1 | reasonable
